Results published in patent US20230066946A1, “1,5-DIPHENYLPYRAZOLYL-3-OXYALKYL ACIDS AND 1-PHENYL-5-THIENYLPYRAZOLYL-3-OXYALKYL ACIDS AND THE USE THEREOF FOR CONTROL OF UNWANTED PLANT GROWTH” (Bayer Aktiengesellschaft, priority 2019, published 2023).

Experiments:
[1] = tested on: VERPE; test: Post-emergence herbicidal action against VERPE; type: in vivo, Veronica persica; conditions: 320 g/ha, visual rating about 3 weeks after treatment
In short: (§1)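 Weeds grown in sandy loam under greenhouse conditions were sprayed at the one-leaf stage, 2-3 weeks after sowing. Compounds were applied as WP or EC formulations in water with 0.5% additive at 600 L/ha, at 1280 or 320 g/ha. Activity was rated visually about 3 weeks later against untreated controls (0-100%).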

[2] = tested on: AMARE; test: Post-emergence herbicidal action against AMARE; type: in vivo, Amaranthus retroflexus; conditions: visual rating about 3 weeks after treatment
In short: as §1

[3] = tested on: MATIN; test: Post-emergence herbicidal action against MATIN; type: in vivo, Matricaria inodora; conditions: visual rating about 3 weeks after treatment
In short: as §1

[4] = tested on: SETVI; test: Post-emergence herbicidal action against SETVI; type: in vivo, Setaria viridis; conditions: 1280 g/ha, post-emergence at one-leaf stage, rated visually after about 3 weeks vs untreated controls
In short: as §1

[5] = tested on: HORMU; test: Pre-emergence herbicidal action against HORMU; type: in vivo, Hordeum murinum; conditions: 320 g/ha, scored visually after about 3 weeks vs untreated controls
Excerpt: Seeds of mono- and dicotyledonous weed plants are placed in plastic pots in sandy loam soil (doubly sown with one species each of mono- or dicotyledonous weed plants per pot) and covered with soil. The compounds of the invention, formulated in the form of wettable powders (WP) or as emulsion concentrates (EC), are then applied onto the surface of the covering soil as aqueous suspension or emulsion with addition of 0.5% additive at a water application rate equivalent to 600 litres per hectare. After the treatment, the pots are placed in a greenhouse and kept under good growth conditions for the trial plants. After about 3 weeks, the effect of the preparations is scored visually in comparison with untreated controls as percentages. For example, 100% activity=the plants have died, 0% activity=like control plants. [table] Tables 4.1-4.15 below show the effects of selected compounds of the general formula (I) according to Tables 1 to 3 on various harmful plants at an application rate corresponding to 1280 or 320 g/ha, which have been obtained by the aforementioned experimental method.

[6] = tested on: PHBPU; test: Post-emergence herbicidal action against PHBPU; type: in vivo, Pharbitis purpurea; conditions: 320 g/ha, visual rating about 3 weeks after treatment
In short: as §1

[7] = tested on: AMARE; test: Pre-emergence herbicidal action against AMARE; type: in vivo, Amaranthus retroflexus; conditions: scored visually after about 3 weeks vs untreated controls; for Pre-emergence action at 320 g/ha against AMARE in %: 100% = plants have died, 0% = like control plants; for Pre-emergence action against AMARE in %: 1280 g/ha
In short: (§2)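 Weed seeds were sown in sandy loam soil in pots and covered; compounds formulated as WP or EC were sprayed onto the covering soil as aqueous suspension/emulsion with 0.5% additive at 600 L/ha water. Application rate 1280 or 320 g/ha. Greenhouse grown; visual % activity vs untreated controls after about 3 weeks.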

[8] = tested on: POLCO; test: Pre-emergence herbicidal action against POLCO; type: in vivo, Polygonum convolvulus; conditions: 320 g/ha, scored visually after about 3 weeks vs untreated controls
In short: as §2

[9] = tested on: STEME; test: Post-emergence herbicidal action against STEME; type: in vivo, Stellaria media; conditions: visual rating about 3 weeks after treatment
In short: as §1

[10] = tested on: HORMU; test: Post-emergence herbicidal action against HORMU; type: in vivo, Hordeum murinum; conditions: 320 g/ha, visual rating about 3 weeks after treatment
Method: (§3) [table] Seeds of mono- and dicotyledonous weed plants are placed in plastic pots in sandy loam soil (twin sowing with one species each of mono- or dicotyledonous weed plants per pot), covered with soil and cultivated in a greenhouse under controlled growth conditions. 2 to 3 weeks after sowing, the test plants are treated at the one-leaf stage. The compounds of the invention, formulated in the form of wettable powders (WP) or as emulsion concentrates (EC), are applied to the green parts of the plants as aqueous suspension or emulsion with addition of 0.5% additive at a water application rate equivalent to 600 litres per hectare. After the test plants have been kept in the greenhouse under optimum growth conditions for about 3 weeks, the activity of the preparations is rated visually in comparison to untreated controls. For example, 100% activity=the plants have died, 0% activity=like control plants. Tables 5.1-5.16 below show the effects of selected compounds of the general formula (I) according to Tables 1 to 3 on various harmful plants at an application rate corresponding to 1280 or 320 g/ha, which have been obtained by the aforementioned experimental method.

[11] = tested on: VIOTR; test: Post-emergence herbicidal action against VIOTR; type: in vivo, Viola tricolor; conditions: 320 g/ha, visual rating about 3 weeks after treatment
In short: as §1

[12] = tested on: VERPE; test: Pre-emergence herbicidal action against VERPE; type: in vivo, Veronica persica; conditions: 320 g/ha, scored visually after about 3 weeks vs untreated controls
In short: as §2

[13] = tested on: ECHCG; test: Post-emergence herbicidal action against ECHCG; type: in vivo, Echinochloa crus-galli; conditions: 1280 g/ha, post-emergence at one-leaf stage, rated visually after about 3 weeks vs untreated controls
In short: as §1

[14] = tested on: ECHCG; test: Pre-emergence herbicidal action against ECHCG; type: in vivo, Echinochloa crus-galli; conditions: scored visually after about 3 weeks vs untreated controls, 100% = plants have died, 0% = like control plants
In short: as §2

[15] = tested on: POLCO; test: Post-emergence herbicidal action against POLCO; type: in vivo, Polygonum convolvulus; conditions: 320 g/ha, visual rating about 3 weeks after treatment
In short: as §1

[16] = tested on: harmful plants; test: Pre-emergence herbicidal action, summary of Tables 4.1-4.15; type: in vivo; conditions: result in words
In short: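 Percent herbicidal action (100% = plants dead, 0% = like controls) was assessed visually about 3 weeks after treatment. Application rates of 1280 or 320 g/ha were applied to the covering soil of freshly sown sandy-loam pots, in 600 l/ha water with 0.5% additive, before emergence.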

[17] = tested on: SETVI; test: Pre-emergence herbicidal action against SETVI; type: in vivo, Setaria viridis; conditions: 1280 g/ha, scored visually after about 3 weeks vs untreated controls
In short: as §2

[18] = tested on: STEME; test: Pre-emergence herbicidal action against STEME; type: in vivo, Stellaria media; conditions: scored visually after about 3 weeks vs untreated controls
In short: as §2

[19] = tested on: LOLRI; test: Post-emergence herbicidal action against LOLRI; type: in vivo, Lolium rigidum; conditions: 1280 g/ha, post-emergence at one-leaf stage, rated visually after about 3 weeks vs untreated controls
Method: as §3

Row | SMILES | Post-emergence action against VERPE in % [1] [%] | Post-emergence action against AMARE in % ([2]; 320 g/ha) [%] | Post-emergence action against AMARE in % ([2]; 1280 g/ha) [%] | Post-emergence action against MATIN in % ([3]; 320 g/ha) [%] | Post-emergence action against MATIN in % ([3]; 1280 g/ha) [%] | Post-emergence action against SETVI in % [4] [%] | Pre-emergence action against HORMU in % [5] [%] | Pre-emergence action at 320 g/ha against AMARE in % [7] [%] | Pre-emergence action against AMARE in % [7] [%] | Pre-emergence action against POLCO in % [8] [%] | Post-emergence action against STEME in % ([9]; 1280 g/ha) [%] | Post-emergence action against HORMU in % [10] [%] | Post-emergence action against VIOTR in % [11] [%] | Pre-emergence action against VERPE in % [12] [%] | Pre-emergence action at 1280 g/ha against ECHCG in % [14] [%] | Post-emergence action against POLCO in % [15] [%] | herbicidal efficacy against harmful plants in the case of pre-emergence treatment [16] | Pre-emergence action against SETVI in % [17] [%] | Pre-emergence action against STEME in % ([18]; 320 g/ha) [%] | Pre-emergence action against STEME in % ([18]; 1280 g/ha) [%] | also measured
1 | COC(=O)[C@@H](C)Oc1nn(-c2cccc(F)c2)c(-c2cccc(F)c2)c1C#N [I-125] | 80 | 90 | 90 | 80 | 90 | 90 | 90 | 100 | 100 | 100 | 90 | 90 | 90 | 90 | 100 | 80 | good herbicidal efficacy | 100 | 90 | 100 | Post-emergence action against PHBPU in % [6]: 80%; Post-emergence action against ECHCG in % [13]: 90%
2 | CC(Oc1nn(-c2ccccc2)c(-c2ccc(F)cc2)c1Cl)C(=O)O (stereo not drawn) [I-139] |  | 90 |  | 80 | 90 |  | 90 | 100 | 100 | 90 | 90 | 80 | 80 | 100 | 100 | 90 | good herbicidal efficacy | 100 | 100 | 100 | Post-emergence action against STEME in % ([9]; 320 g/ha): 80%
3 | COC(=O)C(C)Oc1nn(-c2ccccc2F)c(-c2ccc(F)c(F)c2)c1C#N (stereo not drawn) [I-171] |  |  | 90 |  | 90 | 100 |  |  | 100 |  | 100 |  |  |  | 90 |  |  | 100 |  | 100 | Post-emergence action against ECHCG in % [13]: 100%; Post-emergence action against LOLRI in % [19]: 100%
4 | C=CCNC(=O)COc1nn(-c2c(F)cccc2F)c(-c2ccc(F)c(F)c2)c1[N+](=O)[O-] [III-069] | 90 | 90 |  | 80 |  |  | 90 | 100 | 90 | 90 |  | 80 |  | 100 | 100 | 80 | good herbicidal efficacy | 100 | 100 | 90 | Post-emergence action against STEME in % ([9]; 320 g/ha): 90%
